In publication PMC7734281, “Functionalized Oxoindolin Hydrazine Carbothioamide Derivatives as Highly Potent Inhibitors of Nucleoside Triphosphate Diphosphohydrolases” (Frontiers in Pharmacology, 2020):

Key:
[1] = target: T1, m-NTPDase8 (Mus musculus, UniProt Q8K0L2); assay: m-NTPDase8 inhibition, malachite green assay; assay type: biochemical; details: for inhibition at 100 µM: compound 100 µM; for IC50: mean ± SEM of three independent experiments
T1 construct: made in house; host or cells: COS-7 cells, transient transfection; crude protein extract after sonication
T1 sequence (Q8K0L2 1-497): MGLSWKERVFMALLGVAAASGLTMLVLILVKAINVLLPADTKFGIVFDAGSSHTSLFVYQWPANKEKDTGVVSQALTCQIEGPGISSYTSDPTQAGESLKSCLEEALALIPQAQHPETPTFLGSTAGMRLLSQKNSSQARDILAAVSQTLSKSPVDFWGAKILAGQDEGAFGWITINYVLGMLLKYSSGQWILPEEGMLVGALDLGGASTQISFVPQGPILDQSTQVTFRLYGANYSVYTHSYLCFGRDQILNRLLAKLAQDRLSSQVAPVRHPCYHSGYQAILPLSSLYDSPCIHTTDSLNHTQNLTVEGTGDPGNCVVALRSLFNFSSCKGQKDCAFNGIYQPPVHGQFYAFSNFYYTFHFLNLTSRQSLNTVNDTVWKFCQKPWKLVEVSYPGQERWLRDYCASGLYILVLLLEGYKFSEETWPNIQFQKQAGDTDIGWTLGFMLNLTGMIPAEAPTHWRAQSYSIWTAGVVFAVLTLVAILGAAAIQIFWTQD
Description: (§1) COS-7 cells were transfected with plasmids expressing human or mouse NTPDases1, -2, -3, and -8 as previously described ([Levesque et al., 2007]; [Lecka et al., 2014]) Briefly, the confluent cells were transferred to Dulbecco’s Modified Eagle’s Medium containing no fetal bovine serum. Then, these cells were incubated with plasmid DNA (6 µg) and Lipofectamine reagent (24 µl) at 37°C. After 5 h, transfection was terminated with the addition of an equal volume of DMEM/F-12 (supplemented with 20% FBS) and cells were collected by harvesting after 40–72 h.
(§2) To prepare protein extracts, transfected COS-7 cells were washed three times with tris-saline buffer while temperature was maintained at 4°C. Then cells were scraped and resuspended in harvesting buffer containing 95 mM NaCl, 45 mM tris and 0.1 mM phenylmethylsulfonyl fluoride (pH 7.5). Cells were again washed twice by centrifugation for 5 min at 300 × g at 4°C and then resuspended in harvesting buffer (supplemented with 10 μg ml aprotinin). Following sonication, cellular debris was isolated by 10 min centrifugation at 300 g at 4°C. Subsequently, supernatant was removed very carefully and protein concentration was determined by using Bradford microplate assay while using the bovine serum albumin as a standard ([Bradford, 1976]).
(§3) The inhibitory effects of synthesized compounds on h-NTPDase1, -2, -3, and -8 were determined as described previously, although with slight modifications ([Martín-Satué et al., 2009]). Assay was conducted in a reaction medium containing 50 mM tris-HCl and 5 mM CaCl2 (pH 7.4). All the test compounds were dissolved in dimethyl sulfoxide (DMSO, 10%) and initially screened at a concentration of 100 µM. A reaction mixture containing 55 µl of assay buffer, 10 µl of test compound solution and 10 µl of h-NTPDase1 (58 ng/well) or h-NTPDase2 (79 ng/well) or h-NTPDase3 (163 ng/well) or h-NTPDase8 (66 ng/well) was incubated at 37°C for 10 min. Following the incubation, a 10 µl solution of adenosine triphosphate (ATP, 100 µm) was added as substrate and reaction mixture was again incubated for 15 min at 37°C. The reaction was stopped by adding malachite green reagent (15 µl) and placed at room temperature for 4 to 6 min. Finally, absorbance was measured at 630 nm by using Omega FLUOstar microplate reader (BMG Labtech, Ortenberg, Germany) and % inhibitions were calculated. For compounds showing more than 50% inhibition of any isozyme, dose response curves were generated and their IC50 values were determined. Three separate enzyme inhibition assays were carried out in triplicate and dose-response curve were generated by using PRISM 5.0 (GraphPad, San Diego, United States).
Same procedure was adopted to determine the inhibitory effects of compounds on mouse NTPDases (m-NTPDases). However, the amount of protein used was as follows: m-NTPDase1 (82 ng/well), m-NTPDase2 (57 ng/well), m-NTPDase3 (110 ng/well) and m-NTPDase8 (79 ng/well)

[2] = target: T2, h-NTPDase3 (Homo sapiens, UniProt O75355); assay: h-NTPDase3 inhibition, malachite green assay; assay type: biochemical; details: for inhibition at 100 µM / Ki / IC50: human NTPDase3; for inhibition at 100 µM: compound 100 µM; for Mode of inhibition of h-NTPDase3: Lineweaver-Burk plot; for IC50: ATP 100 µM substrate, mean ± SEM of three independent experiments
T2 construct: made in house; host or cells: COS-7 cells, transient transfection; crude protein extract after sonication
T2 sequence (O75355 1-529): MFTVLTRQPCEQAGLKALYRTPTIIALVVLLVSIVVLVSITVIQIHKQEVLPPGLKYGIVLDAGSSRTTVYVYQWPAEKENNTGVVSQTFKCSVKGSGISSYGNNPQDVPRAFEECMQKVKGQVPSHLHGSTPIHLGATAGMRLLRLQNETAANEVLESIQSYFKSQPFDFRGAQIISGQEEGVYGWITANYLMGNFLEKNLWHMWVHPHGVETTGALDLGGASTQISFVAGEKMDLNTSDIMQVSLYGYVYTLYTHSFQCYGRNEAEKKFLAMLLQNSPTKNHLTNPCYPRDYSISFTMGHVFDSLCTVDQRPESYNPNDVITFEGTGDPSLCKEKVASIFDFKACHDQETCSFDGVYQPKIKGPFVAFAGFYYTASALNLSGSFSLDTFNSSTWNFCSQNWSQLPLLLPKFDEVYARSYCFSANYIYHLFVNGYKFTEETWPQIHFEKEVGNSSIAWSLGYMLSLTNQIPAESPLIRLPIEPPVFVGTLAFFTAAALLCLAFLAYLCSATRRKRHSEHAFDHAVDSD
Description: as §1, §2, §3

| Compound | inhibition at 100 µM [1] [%] | inhibition at 100 µM [2] [%] | melting point [°C] | further results |
| --- | --- | --- | --- | --- |
| COc1ccc(NC(=S)NNC2=c3ccccc3=NC2=O)cc1 [8k, (Z)-N-(4-methoxyphenyl)-2-(2-oxoindolin-3-ylidene)hydrazine-1-carbothioamide] | 24 | 19 |  |  |
| O=C1Nc2ccccc2/C1=N/NC(=S)Nc1c(F)cccc1F [8l, (Z)-N-(2,6-difluorophenyl)-2-(2-oxoindolin-3-ylidene)hydrazine-1-carbothioamide] | 13 |  | 243 to 244 |  |
| O=C1Nc2ccccc2/C1=N/NC(=S)Nc1ccc(F)cc1 [8d, (Z)-N-(4-fluorophenyl)-2-(2-oxoindolin-3-ylidene)hydrazine-1-carbothioamide] |  | 46 | 255 to 256 | Ki [1]: 0.17 µM; IC50 [1]: 1.45 ± 0.12 µM |
| O=C1Nc2ccccc2/C1=N/NC(=S)NCc1ccccc1 [8f, (Z)-N-benzyl-2-(2-oxoindolin-3-ylidene)hydrazine-1-carbothioamide] | 38 |  | 206 to 208 |  |
| O=C1Nc2ccccc2/C1=N/NC(=S)Nc1ccc(Cl)cc1 [8c, (Z)-N-(4-chlorophenyl)-2-(2-oxoindolin-3-ylidene)hydrazine-1-carbothioamide] | 36 |  | 240 to 244 | Times more active than standard inhibitor suramin (comparison of IC50s), h-NTPDase3 ([2]; IC50 ratio versus suramin): 22 times; Mode of inhibition of h-NTPDase3 [2]: competitive; Ki [2]: 0.08 µM; IC50 [2]: 0.19 ± 0.02 µM |
| O=C1Nc2ccccc2/C1=N/NC(=S)Nc1ccc([N+](=O)[O-])cc1 [8b, (Z)-N-(4-nitrophenyl)-2-(2-oxoindolin-3-ylidene)hydrazine-1-carbothioamide] | 30 |  | 271 to 272 |  |
| Cc1ccc(NC(=S)N/N=C2\C(=O)Nc3ccccc32)cc1 [8h, (Z)-2-(2-oxoindolin-3-ylidene)-N-(p-tolyl)hydrazine-1-carbothioamide] | 28 | 26 |  |  |
| CCNC(=S)N/N=C1\C(=O)Nc2ccccc21 [8m, (Z)-N-ethyl-2-(2-oxoindolin-3-ylidene)hydrazine-1-carbothioamide] | 35 |  | 190 to 194 | Mode of inhibition of h-NTPDase3 [2]: non-competitive; Ki [2]: 0.16 µM; IC50 [2]: 0.38 ± 0.03 µM |
| COc1cccc(NC(=S)N/N=C2\C(=O)Nc3ccccc32)c1 [8e, (Z)-N-(3-methoxyphenyl)-2-(2-oxoindolin-3-ylidene)hydrazine-1-carbothioamide] |  |  | 220 to 224 | Ki [1]: 0.44 µM; IC50 [1]: 3.8 ± 0.21 µM |
| Cc1ccc(C(=O)Nc2ccc(S(=O)(=O)O)c3cc(S(=O)(=O)O)cc(S(=O)(=O)O)c23)cc1NC(=O)c1cccc(NC(=O)Nc2cccc(C(=O)Nc3cc(C(=O)Nc4ccc(S(=O)(=O)O)c5cc(S(=O)(=O)O)cc(S(=O)(=O)O)c45)ccc3C)c2)c1 [Suramin, reference compound] |  |  |  | IC50 [1]: > 100 µM; Ki [2]: 1.85 µM; IC50 [2]: 4.31 ± 0.41 µM |
| O=C1Nc2ccccc2/C1=N/NC(=S)Nc1ccccc1 [8a, (Z)-2-(2-oxoindolin-3-ylidene)-N-phenylhydrazine-1-carbothioamide] | 28 | 20 |  |  |
| O=C1Nc2ccccc2/C1=N/NC(=S)Nc1cccc(Cl)c1 [8g, (Z)-N-(3-chlorophenyl)-2-(2-oxoindolin-3-ylidene)hydrazine-1-carbothioamide] | 36 | 17 | 235 to 236 |  |
| Cc1cccc(C)c1NC(=S)N/N=C1\C(=O)Nc2ccccc21 [8i, (Z)-N-(2,6-dimethylphenyl)-2-(2-oxoindolin-3-ylidene)hydrazine-1-carbothioamide] | 26 | 25 | 250 to 252 |  |
| COc1ccc(OC)c(NC(=S)N/N=C2\C(=O)Nc3ccccc32)c1 [8j, (Z)-N-(2,5-dimethoxyphenyl)-2-(2-oxoindolin-3-ylidene)hydrazine-1-carbothioamide] | 32 | 34 | 245 to 248 |  |
